Experimental data from patent publication US20140234502A1, “Treatment of Produce” (Rohm and Haas Company, priority 2009, published 2014).

Experiments:
Type in all cases: in vivo, pear
[1] = test system: Conference Pears; experiment: Color rating of Conference pears; settings: ambient 5-8 days; for Italy color / SW France color: scale of 0 (green) to 5 (yellow)
Source text: (§1) Pears (Conference, William's/Bartlett, or Packam's) were harvested at maturity for long storage. Number of fruits and replicates were selected according to the size of the chamber in which to apply 1-MCP and according to the statistical design. Airtight containers in the range of 1 cubic meter were used for the application of both 1-MCP and ethylene. 1-MCP was released from SmartFresh™ powder that contained 0.14% 1-MCP by weight (obtained from AgroFresh, Inc.). The amount of that SmartFresh™ powder was chosen to yield the target atmospheric concentration of 1-MCP in the chosen container. For example, the 1-MCP released from 1000 mg of that SmartFresh™ powder in 1 cubic meter yielded 1-MCP concentration in the atmosphere of 625 ppb.
(§2) The chosen amount of SmartFresh™ powder was dissolved in water into a tight flask and shaken until all the powder was dissolved. The flask was then put it into the airtight container and opened, to release the 1-MCP. At the same time of the opening of the 1-MCP flask, ethylene was injected with a syringe into the airtight container. Ethylene was taken from a compressed tank at known concentration: either taken directly or released into a flask. In the latter case the concentration was measured by gas-chromatograph to determine the quantity of volume to inject into the airtight container to get the target concentration.
(§3) The exposure to atmosphere containing either 1-MCP alone or 1-MCP and ethylene was done on cold pears (already cooled down to non-ambient storage temperature) within a maximum of 7 days from harvest and lasted 24 hours. At the end of the application, the airtight container was vented for 15 minutes and the fruits were put into RA or CA storage. RA storage was at temperature of −1° C. to 1° C. and at relative humidity of 80% to 98%. CA storage had the same temperature and humidity of RA storage, had oxygen level of 1% to 3%, by volume based on the volume of the atmosphere and had carbon dioxide level of 0.5% to 2%, by volume based on the volume of the atmosphere.
Pears were tested for firmness, as described above, and were rated for color on a scale of 0 (green) to 5 (yellow).

[2] = test system: Packam's Pears; experiment: Firmness of Packam's pears by penetrometer after treatment, non-ambient storage and shelf life; settings: South Africa, ambient 5 days
Source text: as §1, §2, §3
In addition, samples of pears (from the same orchards from which pears treated with 1-MCP alone or 1-MCP and ethylene were harvested) were put into an airtight container for 24 hours at the temperature as the treated pears in order to reproduce the same environmental conditions. Then they were stored in the same rooms or in separated rooms in the same conditions of RA and CA as the treated pears. […]
(§4) Pears denoted with a single number (e.g., “300”) received 1-MCP treatment with that concentration, in ppb, of 1-MCP in the atmosphere (e.g., 300 ppb) and were not exposed to exogenous ethylene. […] Reported quantity is “firmness” (“F”), the penetrometer force in kgf. […]

[3] = test system: Conference Pears; experiment: Examination of Conference pears for scald; settings: Example 9, CA 6 months, Italy
Source text: as §1, §2, §3
Pears from Italy (the same pears whose firmness is reported herein above in Example 5) were examined for scald after exposure to ambient conditions for the number of days shown below.

[4] = test system: William's Pears; experiment: Firmness of William's pears by penetrometer after treatment, non-ambient storage and shelf life; settings: South Africa, RA for 8 weeks, ambient for 5 days
Source text: as §1, §2
The exposure to atmosphere containing either 1-MCP alone or 1-MCP and ethylene was done on cold pears (already cooled down to non-ambient storage temperature) within a maximum of 7 days from harvest and lasted 24 hours. At the end of the application, the airtight container was vented for 15 minutes and the fruits were put into RA or CA storage. RA storage was at temperature of −1° C. to 1° C. and at relative humidity of 80% to 98%. […]
as §4

[5] = test system: Conference Pears; experiment: Inspection of Conference pears for rot, bruising and internal browning
Source text: as §1, §2, §3
After RA storage, pears were exposed to ambient for the number of days shown below and then inspected for rot, bruising, and internal browning (“I.B.”). Results shown are the percentage of pears having the disorder.
Pears from SW France were examined as in Example 7, and the percent disordered fruit was as follows: […]

[6] = test system: Conference Pears; experiment: Firmness of Conference pears by penetrometer after treatment, non-ambient storage and shelf life; parameters: key to SW France F (firmness) / Italy F (firmness) / Average F (firmness): penetrometer force in kgf (8 mm probe); settings: for ES A F (firmness): farm ES A; for ES B F (firmness): farm ES B; for IT F (firmness): farm IT; for firmness: Example 9, CA 6 months; for Italy F (firmness) / firmness: Italy; for Orchard #1 F (firmness) / Orchard #2 F (firmness) / Orchard #3 F (firmness): Example 11, Spain, RA 3 months
Source text: as §1, §2, §3
In addition, samples of pears (from the same orchards from which pears treated with 1-MCP alone or 1-MCP and ethylene were harvested) were put into an airtight container for 24 hours at the temperature as the treated pears in order to reproduce the same environmental conditions. Then they were stored in the same rooms or in separated rooms in the same conditions of RA and CA as the treated pears. These pears received no exposure to 1-MCP, exogenous ethylene, or any combination thereof, and they are labeled “control” below.
Length of non-ambient storage at present commercial temperature and storage regime was generally of 2-4 months in RA and 6 months in CA, unless otherwise specified, according to normal commercial practice.
All pears received the same progression of non-ambient storage followed by exposure to ambient conditions (“shelf life”).
Pears denoted with a single number (e.g., “300”) received 1-MCP treatment with that concentration, in ppb, of 1-MCP in the atmosphere (e.g., 300 ppb) and were not exposed to exogenous ethylene. Pears denoted with two numbers (e.g. “300+600”) were treated with both that concentration in ppb of 1-MCP and that concentration in ppb of ethylene (e.g., 300 ppb of 1-MCP and 600 ppb of ethylene). The firmness of pears was tested using commercial penetrometers with test probe of 8 mm diameter. Reported quantity is “firmness” (“F”), the penetrometer force in kgf.

[7] = Example 7, RA 4 months, SW France, 13 ambient days
[8] = Example 8, CA 6 months, ambient 13 days, SW France
[9] = Example 3, RA 3 months, ambient 5 to 8 days
[10] = Example 4, CA 6 months, ambient 5 to 8 days
[11] = Example 5, RA 3 months, ambient 5-8 days
[12] = Example 6, CA 6 months, ambient 5-8 days

CC1=CC1 [300(C), 1-MCP]
Italy color ([1]; Example 5, RA 3 months): 1.9 | SW France color ([1]; Example 5, RA 3 months): 2.95 | Italy color ([1]; Example 6, CA 6 months): 2.4 | SW France color ([1]; Example 6, CA 6 months): 2.7 | Average color ([1]; Example 6, CA 6 months, average of SW France and Italy, scale 0 (green) to 5 (yellow)): 2.6 | 8 weeks F (firmness) ([2]; RA for 8 weeks): 6.8 kgf | 12 weeks F (firmness) ([2]; RA for 12 weeks): 5.8 kgf | percent with scald ([3]; 0 ambient days): 0% | percent with scald ([3]; 7 ambient days): 1% | farm 1 F (firmness) ([4]; farm 1): 6.7 kgf | farm 2 F (firmness) ([4]; farm 2): 5.6 kgf | farm 3 F (firmness) ([4]; farm 3): 7.2 kgf | percentage of pears having internal browning (I.B.) ([5]; Example 7, RA 4 months, Loire, France, 11 ambient days): 0 percentage | percentage of pears having internal browning (I.B.) ([5]; Example 7, RA 4 months, Loire, France, 13 ambient days): 0 percentage | percentage of pears having internal browning (I.B.) ([5]; Example 7, RA 4 months, Loire, France, 15 ambient days): 0 percentage | percentage of pears having bruising [5, 7]: 0 percentage | percentage of pears having internal browning (I.B.) [5, 7]: 0 percentage | percentage of pears having rot [5, 7]: 0 percentage | percent disordered fruit: I.B. [5, 8]: 34% | percent disordered fruit: rot [5, 8]: 12% | AV F (firmness), average of the results from the seven farms [6, 9]: 4.6 kgf | ES A F (firmness) [6, 9]: 2.5 kgf | ES B F (firmness) [6, 9]: 3.4 kgf | FR A F (firmness) ([6]; Example 3, RA 3 months, ambient 5 to 8 days, farm FR A): 5.3 kgf | FR B F (firmness) ([6]; Example 3, RA 3 months, ambient 5 to 8 days, farm FR B): 5.1 kgf | IT F (firmness) [6, 9]: 4.8 kgf | NL A F (firmness) ([6]; Example 3, RA 3 months, ambient 5 to 8 days, farm NL A): 5.3 kgf | NL B F (firmness) ([6]; Example 3, RA 3 months, ambient 5 to 8 days, farm NL B): 5.6 kgf | Av F (firmness), average of the results from the six farms [6, 10]: 4.1 kgf | ES A F (firmness) [6, 10]: 4.2 kgf | ES B F (firmness) [6, 10]: 3.3 kgf | FR F (firmness) ([6]; Example 4, CA 6 months, ambient 5 to 8 days, farm FR): 4.7 kgf | IT F (firmness) [6, 10]: 4.7 kgf | NL A F (firmness) ([6]; Example 4, CA 6 months, ambient 5 to 8 days, farm NL A): 4.4 kgf | NL B F (firmness) ([6]; Example 4, CA 6 months, ambient 5 to 8 days, farm NL B): 3.4 kgf | Italy F (firmness) [6, 11]: 4.8 | SW France F (firmness) [6, 11]: 5.1 | Italy F (firmness) [6, 12]: 4.7 | SW France F (firmness) [6, 12]: 4.7 | Average F (firmness) ([6]; Example 6, CA 6 months, ambient 5-8 days, average of SW France and Italy): 4.7 | firmness ([6]; 0 ambient days): 6.5 kgf | firmness ([6]; 7 ambient days): 4.7 kgf | Average F (firmness), average of the two orchards ([6]; Example 10, RA 3 months, ambient 5 days): 4.48 kgf | NL A F (firmness) ([6]; Example 10, RA 3 months, ambient 5 days, NL A): 5.59 kgf | NL B F (firmness) ([6]; Example 10, RA 3 months, ambient 5 days, NL B): 3.37 kgf | Orchard #1 F (firmness) ([6]; 0 days ambient): 5.72 kgf | Orchard #2 F (firmness) ([6]; 0 days ambient): 5.92 kgf | Orchard #3 F (firmness) ([6]; 0 days ambient): 5.97 kgf | Orchard #1 F (firmness) ([6]; 7 days ambient): 5.84 kgf | Orchard #2 F (firmness) ([6]; 7 days ambient): 5.53 kgf | Orchard #3 F (firmness) ([6]; 7 days ambient): 5.44 kgf | Orchard #1 F (firmness) ([6]; 12 days ambient): 5.55 kgf | Orchard #2 F (firmness) ([6]; 12 days ambient): 5.68 kgf | Orchard #3 F (firmness) ([6]; 12 days ambient): 5.62 kgf
